According to ChEMBL document CHEMBL4765389, “Antimicrobial and anti-inflammatory activities of short dodecapeptides derived from duck cathelicidin: Plausible mechanism of bactericidal action and endotoxin neutralization” (Eur J Med Chem, 2020):

Test system: Lipopolysaccharide (LPS)
Assay: Displacement of BODIPY-TR cadaverine from Escherichia coli O111:B4 LPS at 10 uM measured for 100 sec by spectrofluorometry relative to control

H-LWKKIYRKWKRW-NH2
Activity: 75%
